Experimental data from patent US10214519B2, “Phosphatidylinositol 3-kinase inhibitors” (Gilead Sciences, Inc., priority 2016, dated 2019).

biological target: PI3Kβ (Homo sapiens (Human), UniProt P42338); test: PI3K isoform TR-FRET enzymatic assay (PI3Kβ); type: biochemical; conditions: 2× Km ATP, 30 minutes at 25° C.
Procedure: The compounds of formula (I) were characterized for their enzymatic activity against the PI3K isoforms. The activities were measured using a time-resolved fluorescence resonance energy transfer (TR-FRET) assay. TR-FRET monitored the formation of 3,4,5-inositol triphosphate molecule that competed with fluorescently labeled PIP3 for binding to the GRP-1 pleckstrin homology domain protein.
Class I PI3K isoforms were expressed and purified as heterodimeric recombinant proteins. All assay reagents and buffers for the TR-FRET assay were purchased from Millipore. […] The compounds were added to the assay solution and incubated for 30 minutes at 25° C. The reactions were terminated with a final concentration of 10 mM EDTA, 10 nM labeled-PIP3, and 35 nM Europium labeled GRP-1 detector protein before reading TR-FRET on an Envision plate reader (Ex: 340 nm; Em: 615/665 nm; 100 μs delay and 500 μs read window).
The results were normalized based on positive (1 μM wortmanin) and negative (DMSO) controls, and the IC50 values for PI3K α, β, δ, and γ were calculated from the fit of the dose-response curves to a four-parameter equation.

PI3Kβ, sequence (P42338 whole entry, the tested form may be a part, canonical isoform): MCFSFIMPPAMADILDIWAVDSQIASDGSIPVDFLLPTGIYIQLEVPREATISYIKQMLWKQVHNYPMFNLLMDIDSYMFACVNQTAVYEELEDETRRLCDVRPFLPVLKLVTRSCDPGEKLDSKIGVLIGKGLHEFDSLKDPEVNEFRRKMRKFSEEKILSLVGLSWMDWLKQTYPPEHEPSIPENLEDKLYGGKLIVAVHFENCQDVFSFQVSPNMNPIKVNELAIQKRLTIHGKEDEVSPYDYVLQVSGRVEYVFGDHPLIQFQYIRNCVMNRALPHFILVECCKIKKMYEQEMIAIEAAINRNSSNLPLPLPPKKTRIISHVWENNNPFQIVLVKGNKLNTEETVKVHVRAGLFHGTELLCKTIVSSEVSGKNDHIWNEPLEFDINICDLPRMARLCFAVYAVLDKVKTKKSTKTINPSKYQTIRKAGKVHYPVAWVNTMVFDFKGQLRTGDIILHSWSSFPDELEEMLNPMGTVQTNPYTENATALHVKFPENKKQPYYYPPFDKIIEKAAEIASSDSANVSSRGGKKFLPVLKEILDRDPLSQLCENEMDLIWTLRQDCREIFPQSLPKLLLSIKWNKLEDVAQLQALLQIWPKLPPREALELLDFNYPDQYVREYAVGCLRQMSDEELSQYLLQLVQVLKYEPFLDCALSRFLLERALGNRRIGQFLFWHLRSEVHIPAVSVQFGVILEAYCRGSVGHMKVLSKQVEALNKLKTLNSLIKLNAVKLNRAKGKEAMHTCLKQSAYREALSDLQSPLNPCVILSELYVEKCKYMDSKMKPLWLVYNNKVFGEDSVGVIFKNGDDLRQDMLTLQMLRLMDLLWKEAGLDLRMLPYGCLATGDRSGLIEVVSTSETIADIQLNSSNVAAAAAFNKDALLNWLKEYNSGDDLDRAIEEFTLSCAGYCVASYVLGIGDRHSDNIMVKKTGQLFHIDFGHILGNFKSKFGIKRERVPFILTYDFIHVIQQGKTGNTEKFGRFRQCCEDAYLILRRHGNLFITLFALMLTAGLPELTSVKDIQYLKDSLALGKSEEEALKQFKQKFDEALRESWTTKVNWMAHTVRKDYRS
PI3Kβ, sequence (P27986 whole entry partner, the tested form may be a part, canonical isoform): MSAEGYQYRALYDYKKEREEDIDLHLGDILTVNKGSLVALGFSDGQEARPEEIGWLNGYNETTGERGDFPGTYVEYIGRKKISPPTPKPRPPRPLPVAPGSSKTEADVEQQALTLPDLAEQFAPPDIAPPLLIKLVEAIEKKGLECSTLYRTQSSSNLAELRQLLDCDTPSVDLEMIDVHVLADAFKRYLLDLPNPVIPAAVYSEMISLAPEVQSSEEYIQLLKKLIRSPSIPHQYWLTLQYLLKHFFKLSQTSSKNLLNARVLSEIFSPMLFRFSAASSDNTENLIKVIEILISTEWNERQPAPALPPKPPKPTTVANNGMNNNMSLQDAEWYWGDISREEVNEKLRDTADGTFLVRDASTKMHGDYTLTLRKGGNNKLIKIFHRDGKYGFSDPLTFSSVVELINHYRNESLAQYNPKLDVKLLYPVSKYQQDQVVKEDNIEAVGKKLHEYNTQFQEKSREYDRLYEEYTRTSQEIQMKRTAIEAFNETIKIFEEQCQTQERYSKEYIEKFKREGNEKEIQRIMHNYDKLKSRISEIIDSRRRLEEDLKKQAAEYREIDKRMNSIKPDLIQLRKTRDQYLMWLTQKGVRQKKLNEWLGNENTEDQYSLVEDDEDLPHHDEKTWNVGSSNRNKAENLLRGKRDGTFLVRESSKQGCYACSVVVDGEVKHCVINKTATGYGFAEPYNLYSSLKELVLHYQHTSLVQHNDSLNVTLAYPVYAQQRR

Structure (SMILES) | IC50 [nM]
Fc1ccc(F)c2c(-n3c(C4CC4)nc4c(-c5cnc(Cl)[nH]5)cc(N5CCOCC5)cc43)ccnc12 (atropisomer, axis not shown) [Compound 342, 4-[7-(2-chloro-1H-imidazol-5-yl)-2-cyclopropyl-3-(5,8-difluoroquinolin-4-yl)benzimidazol-5-yl]morpholine] | > 10000
Fc1ccc(F)c2c(-n3c(C4CC4)nc4c(-c5cnc(Cl)[nH]5)cc(N5CCOCC5)cc43)ccnc12 (atropisomer, axis not shown) [Compound 343, 4-[7-(2-chloro-1H-imidazol-5-yl)-2-cyclopropyl-3-(5,8-difluoroquinolin-4-yl)benzimidazol-5-yl]morpholine] | 5
Cc1nc2c(-c3nnc[nH]3)cc(N3CCOCC3)cc2n1-c1ccnc2c(F)ccc(Cl)c12 (atropisomer, axis not shown) [Compound 344, 4-[3-(5-chloro-8-fluoroquinolin-4-yl)-2-methyl-7-(4H-1,2,4-triazol-3-yl)benzimidazol-5-yl]morpholine] | 5
Cc1nc2c(-c3nnc[nH]3)cc(N3CCOCC3)cc2n1-c1ccnc2c(F)ccc(Cl)c12 (atropisomer, axis not shown) [Compound 345, 4-[3-(5-chloro-8-fluoroquinolin-4-yl)-2-methyl-7-(4H-1,2,4-triazol-3-yl)benzimidazol-5-yl]morpholine] | 4460
CCc1nc2c(-c3cnc(Cl)[nH]3)cc(N3CCOCC3)cc2n1-c1ccnc2c(F)ccc(F)c12 (atropisomer, axis not shown) [Compound 346, 4-[7-(2-chloro-1H-imidazol-5-yl)-3-(5,8-difluoroquinolin-4-yl)-2-ethylbenzimidazol-5-yl]morpholine] | 10000
CCc1nc2c(-c3cnc(Cl)[nH]3)cc(N3CCOCC3)cc2n1-c1ccnc2c(F)ccc(F)c12 (atropisomer, axis not shown) [Compound 347, 4-[7-(2-chloro-1H-imidazol-5-yl)-3-(5,8-difluoroquinolin-4-yl)-2-ethylbenzimidazol-5-yl]morpholine] | 7
CCc1nc2c(-c3nnc(C)[nH]3)cc(N3CCOCC3)cc2n1-c1c(Cl)cnc2c(Cl)cccc12 (atropisomer, axis not shown) [Compound 348, 4-[3-(3,8-dichloroquinolin-4-yl)-2-ethyl-7-(5-methyl-4H-1,2,4-triazol-3-yl)benzimidazol-5-yl]morpholine] | 13
CCc1nc2c(-c3nnc(C)[nH]3)cc(N3CCOCC3)cc2n1-c1c(Cl)cnc2c(Cl)cccc12 (atropisomer, axis not shown) [Compound 349, 4-[3-(3,8-dichloroquinolin-4-yl)-2-ethyl-7-(5-methyl-4H-1,2,4-triazol-3-yl)benzimidazol-5-yl]morpholine] | 439
Cc1nnc(-c2cc(N3CCOCC3)cc3c2nc(C)n3-c2ccnc3c(F)ccc(F)c23)[nH]1 (atropisomer, axis not shown) [Compound 350, (S)-4-(1-(5,8-difluoroquinolin-4-yl)-2-methyl-4-(5-methyl-4H-1,2,4-triazol-3-yl)-1H-benzo[d]imidazol-6-yl)morpholine] | 10
Cc1nnc(-c2cc(N3CCOCC3)cc3c2nc(C)n3-c2ccnc3c(F)ccc(F)c23)[nH]1 (atropisomer, axis not shown) [Compound 351, (R)-4-(1-(5,8-difluoroquinolin-4-yl)-2-methyl-4-(5-methyl-4H-1,2,4-triazol-3-yl)-1H-benzo[d]imidazol-6-yl)morpholine] | 460
Cc1nc2c(-c3nnc[nH]3)cc(N3CCOCC3)cc2n1-c1ccnc2c(F)c(F)ccc12 (atropisomer, axis not shown) [Compound 352, 4-[3-(7,8-difluoroquinolin-4-yl)-2-methyl-7-(4H-1,2,4-triazol-3-yl)benzimidazol-5-yl]morpholine] | 7
Cc1nc2c(-c3nnc[nH]3)cc(N3CCOCC3)cc2n1-c1ccnc2c(F)c(F)ccc12 (atropisomer, axis not shown) [Compound 353, 4-[3-(7,8-difluoroquinolin-4-yl)-2-methyl-7-(4H-1,2,4-triazol-3-yl)benzimidazol-5-yl]morpholine] | 270
CCCc1nc2c(-c3nnc[nH]3)cc(N3CCOCC3)cc2n1-c1ccnc2c(F)cccc12 (atropisomer, axis not shown) [Compound 354, 4-[3-(8-fluoroquinolin-4-yl)-2-propyl-7-(4H-1,2,4-triazol-3-yl)benzimidazol-5-yl]morpholine] | 8
CCCc1nc2c(-c3nnc[nH]3)cc(N3CCOCC3)cc2n1-c1ccnc2c(F)cccc12 (atropisomer, axis not shown) [Compound 355, 4-[3-(8-fluoroquinolin-4-yl)-2-propyl-7-(4H-1,2,4-triazol-3-yl)benzimidazol-5-yl]morpholine] | 2500
CCCc1nc2c(-c3ncco3)cc(N3CCOCC3)cc2n1-c1ccnc2c(F)ccc(F)c12 (atropisomer, axis not shown) [Compound 356, 4-[3-(5,8-difluoroquinolin-4-yl)-7-(1,3-oxazol-2-yl)-2-propylbenzimidazol-5-yl]morpholine] | > 10000
CCCc1nc2c(-c3ncco3)cc(N3CCOCC3)cc2n1-c1ccnc2c(F)ccc(F)c12 (atropisomer, axis not shown) [Compound 357, 4-[3-(5,8-difluoroquinolin-4-yl)-7(1,3-oxazol-2-yl)-2-propylbenzimidazol-5-yl]morpholine] | 5
Cc1nc2c(-c3nnc(Cl)[nH]3)cc(N3CCOCC3)cc2n1-c1ccnc2c(Cl)cccc12 (atropisomer, axis not shown) [Compound 358, 4-[3-(8-chloroquinolin-4-yl)-7-(5-chloro-4H-1,2,4-triazol-3-yl)-2-methylbenzimidazol-5-yl]morpholine] | 10
Cc1nc2c(-c3nnc(Cl)[nH]3)cc(N3CCOCC3)cc2n1-c1ccnc2c(Cl)cccc12 (atropisomer, axis not shown) [Compound 359, 4-[3-(8-chloroquinolin-4-yl)-7-(5-chloro-4H-1,2,4-triazol-3-yl)-2-methylbenzimidazol-5-yl]morpholine] | 1200
Cc1nc2c(-c3nnc[nH]3)cc(N3CCOCC3)cc2n1-c1ccnc2c(Cl)cccc12 (atropisomer, axis not shown) [Compound 360, 4-[3-(8-chloroquinolin-4-yl)-2-methyl-7-(4H-1,2,4-triazol-3-yl)benzimidazol-5-yl]morpholine] | 2800
Cc1nc2c(-c3nnc[nH]3)cc(N3CCOCC3)cc2n1-c1ccnc2c(Cl)cccc12 (atropisomer, axis not shown) [Compound 361, 4-[3-(8-chloroquinolin-4-yl)-2-methyl-7-(4H-1,2,4-triazol-3-yl)benzimidazol-5-yl]morpholine] | 2
Cc1cccc2nccc(-n3c(C)nc4c(-c5nnc[nH]5)cc(N5CCOCC5)cc43)c12 (atropisomer, axis not shown) [Compound 362, 4-[2-methyl-3-(5-methylquinolin-4-yl)-7-(4H-1,2,4-triazol-3-yl)benzimidazol-5-yl]morpholine] | 28
Cc1cccc2nccc(-n3c(C)nc4c(-c5nnc[nH]5)cc(N5CCOCC5)cc43)c12 (atropisomer, axis not shown) [Compound 363, 4-[2-methyl-3-(5-methylquinolin-4-yl)-7-(4H-1,2,4-triazol-3-yl)benzimidazol-5-yl]morpholine] | 8000
CCc1nc2c(-c3nnc[nH]3)cc(N3CCOCC3)cc2n1-c1c(C)cnc2c(C#N)cccc12 (atropisomer, axis not shown) [Compound 364, 4-(2-ethyl-6-morpholino-4-(4H-1,2,4-triazol-3-yl)-1H-benzo[d]imidazol-1-yl)-3-methylquinoline-8-carbonitrile] | 25
CCc1nc2c(-c3nnc[nH]3)cc(N3CCOCC3)cc2n1-c1c(C)cnc2c(C#N)cccc12 (atropisomer, axis not shown) [Compound 365, 4-(2-ethyl-6-morpholino-4-(4H-1,2,4-triazol-3-yl)-1H-benzo[d]imidazol-1-yl)-3-methylquinoline-8-carbonitrile] | 9100
Cc1nnc(-c2cc(N3CCOCC3)cc3c2nc(C)n3-c2c(Cl)cnc3c(Cl)cccc23)[nH]1 (atropisomer, axis not shown) [Compound 366, 4-(1-(3,8-dichloroquinolin-4-yl)-2-methyl-4-(5-methyl-4H-1,2,4-triazol-3-yl)-1H-benzo[d]imidazol-6-yl)morpholine] | 17
Cc1nnc(-c2cc(N3CCOCC3)cc3c2nc(C)n3-c2c(Cl)cnc3c(Cl)cccc23)[nH]1 (atropisomer, axis not shown) [Compound 367, 4-(1-(3,8-dichloroquinolin-4-yl)-2-methyl-4-(5-methyl-4H-1,2,4-triazol-3-yl)-1H-benzo[d]imidazol-6-yl)morpholine] | 5600
CCCc1nc2c(-c3ccn[nH]3)cc(N3CCOCC3)cc2n1-c1ccnc2c(F)ccc(F)c12 (atropisomer, axis not shown) [Compound 368, 4-(1-(5,8-difluoroquinolin-4-yl)-2-propyl-4-(1H-pyrazol-5-yl)-1H-benzo[d]imidazol-6-yl)morpholine] | 18
CCCc1nc2c(-c3ccn[nH]3)cc(N3CCOCC3)cc2n1-c1ccnc2c(F)ccc(F)c12 (atropisomer, axis not shown) [Compound 369, 4-(1-(5,8-difluoroquinolin-4-yl)-2-propyl-4-(1H-pyrazol-5-yl)-1H-benzo[d]imidazol-6-yl)morpholine] | > 10000
